Read-outs that look alike come from different tables or passages of the source.

Test [1] has as its target T1, human α2A adrenergic receptor (Homo sapiens, UniProt P08913).
T1 sequence (P08913 1-465): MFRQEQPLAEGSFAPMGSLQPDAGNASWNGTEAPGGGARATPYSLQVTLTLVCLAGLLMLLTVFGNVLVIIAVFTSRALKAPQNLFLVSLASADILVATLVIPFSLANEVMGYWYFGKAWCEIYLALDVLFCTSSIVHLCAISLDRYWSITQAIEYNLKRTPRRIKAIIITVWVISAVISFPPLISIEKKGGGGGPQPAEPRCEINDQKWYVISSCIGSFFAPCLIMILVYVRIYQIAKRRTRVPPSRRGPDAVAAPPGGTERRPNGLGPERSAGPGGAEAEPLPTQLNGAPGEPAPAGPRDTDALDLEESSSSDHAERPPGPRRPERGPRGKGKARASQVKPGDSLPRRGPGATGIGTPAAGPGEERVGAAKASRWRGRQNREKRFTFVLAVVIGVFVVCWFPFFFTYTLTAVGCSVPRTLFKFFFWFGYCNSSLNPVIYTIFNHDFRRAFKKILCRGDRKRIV
Description: Agonist activity: inhibition of forskolin-stimulated cAMP synthesis. The note with it: for I.A (Intrinsic Activity) Alpha-2 A: maximum activity relative to maximum activity induced by norepinephrine, human α2A.

Test [2] deals with T1, human α2A adrenergic receptor. Description: Radioligand binding assay, [3H]rauwolscine competition. More on the design: expressed in transfected cells.
In test [3] the target is T2, human α2C adrenergic receptor (Homo sapiens, UniProt P18825).
T2 construct: The entire coding region of α2C (1383 bp), including 2 bp of 5′ UT and 400 bp of 3′ UT; expressed in transfected cells
T2 sequence (P18825 1-462): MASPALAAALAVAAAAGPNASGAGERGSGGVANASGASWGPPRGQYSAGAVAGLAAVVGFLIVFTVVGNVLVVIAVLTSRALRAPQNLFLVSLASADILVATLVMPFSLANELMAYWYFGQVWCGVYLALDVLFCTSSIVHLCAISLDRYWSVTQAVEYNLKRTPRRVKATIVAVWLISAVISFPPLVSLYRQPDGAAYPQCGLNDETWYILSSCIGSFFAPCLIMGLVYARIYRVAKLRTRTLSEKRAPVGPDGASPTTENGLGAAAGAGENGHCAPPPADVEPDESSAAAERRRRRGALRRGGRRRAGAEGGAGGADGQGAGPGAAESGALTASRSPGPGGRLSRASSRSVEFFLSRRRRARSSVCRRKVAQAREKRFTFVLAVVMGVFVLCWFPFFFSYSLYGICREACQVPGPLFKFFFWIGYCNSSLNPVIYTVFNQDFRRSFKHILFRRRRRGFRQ
Described as above.

In the case of `Brc1cc(NC2=NCCN2)cc2cc[nH]c12` [Example 2, 7-Bromo-5-(2-imidazolin-2-ylamino)indole], in test [1], the response was half-maximal at 0.437 nM (EC50) and the “I.A (Intrinsic Activity) Alpha-2 A” value came out at 0.46. Also, the Ki in test [2] was 0.724 nM. In test [3], this molecule showed a Ki of 12.9 nM.

For the molecule `N#Cc1cc(NC2=NCCN2)cc2cc[nH]c12` [Example 5, 7-Cyano-5-(2-imidazolin-2-ylamino)indole], the Ki in test [3] is 43.7 nM.

Turning to `CC(=O)c1cc(NC2=NCCN2)cc2cc[nH]c12` [Example 6, 7-Acetyl-5-(2-imidazolin-2-ylamino)indole], the Ki in test [3] is 117 nM.

In the case of `c1nc2cc(NC3=NCCN3)ccc2s1` [Example 13, 5-(2-Imidazolin-2-ylamino)benzothiazole], in test [1], the midpoint of the response, the EC50, lay at 12.3 nM and the “I.A (Intrinsic Activity) Alpha-2 A” value was 0.98. The Ki in test [2] was 3.72 nM. For the same molecule, in test [3], the Ki is 20.4 nM.

As for `c1nc2ccc(NC3=NCCN3)cc2s1` [Example 14, 6-(2-Imidazolin-2-ylamino)benzothiazole], the “I.A (Intrinsic Activity) Alpha-2 A” value in test [1] amounted to 0.51.

With `c1nc2ccc(NC3=NCCS3)cc2s1` [Example 15, 6-(2-Thiazolin-2-ylamino)benzothiazole], in test [1], the EC50 was 3090 nM and the “I.A (Intrinsic Activity) Alpha-2 A” value stood at 0.58. Moreover, in test [2] (cloned human α2A, LM(tk-) cell membranes, [3H]rauwolscine, read-out: pKi Alpha-2 A (converted)), the Ki was 115 nM.

For the origin of these results see patent US6723741B2, “Benzimidazoles and benzothiazoles and uses thereof” (Synaptic Pharmaceutical Corporation, priority 1996, dated 2004).
